# Measured values reported in article PMC11790914, “Chemogenomics for steroid hormone receptors (NR3)” (Communications Chemistry, 2025).
# “And” between values parts separate entries of the source, which are not always exact repeats. Equal entries are not always repeated.
# Key:
# [1] = test system: HEK293T cells; assay: Cytotoxicity: necrosis induction (red fluorescent dye for permeable plasma membranes); type: cell-based; conditions: 1 µM, 24 h, necrotic cell count normalized to 0.1% DMSO, single replicates;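 further: compounds applied in DMEM high glucose with 0.1% FCS and 0.1% DMSO, necrotic HEK293T cells counted by red staining of cells whose plasma membranes had become permeable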
# [2] = biological target: T1, ABL1 (Homo sapiens, UniProt P00519); assay: Liability panel screening by DSF: ABL1; type: binding; conditions: DSF, 20 µM, n=2; read-out: Mean ΔTM ABL1
# T1 construct: made in house
# T1 sequence (P00519 whole entry, species assumed): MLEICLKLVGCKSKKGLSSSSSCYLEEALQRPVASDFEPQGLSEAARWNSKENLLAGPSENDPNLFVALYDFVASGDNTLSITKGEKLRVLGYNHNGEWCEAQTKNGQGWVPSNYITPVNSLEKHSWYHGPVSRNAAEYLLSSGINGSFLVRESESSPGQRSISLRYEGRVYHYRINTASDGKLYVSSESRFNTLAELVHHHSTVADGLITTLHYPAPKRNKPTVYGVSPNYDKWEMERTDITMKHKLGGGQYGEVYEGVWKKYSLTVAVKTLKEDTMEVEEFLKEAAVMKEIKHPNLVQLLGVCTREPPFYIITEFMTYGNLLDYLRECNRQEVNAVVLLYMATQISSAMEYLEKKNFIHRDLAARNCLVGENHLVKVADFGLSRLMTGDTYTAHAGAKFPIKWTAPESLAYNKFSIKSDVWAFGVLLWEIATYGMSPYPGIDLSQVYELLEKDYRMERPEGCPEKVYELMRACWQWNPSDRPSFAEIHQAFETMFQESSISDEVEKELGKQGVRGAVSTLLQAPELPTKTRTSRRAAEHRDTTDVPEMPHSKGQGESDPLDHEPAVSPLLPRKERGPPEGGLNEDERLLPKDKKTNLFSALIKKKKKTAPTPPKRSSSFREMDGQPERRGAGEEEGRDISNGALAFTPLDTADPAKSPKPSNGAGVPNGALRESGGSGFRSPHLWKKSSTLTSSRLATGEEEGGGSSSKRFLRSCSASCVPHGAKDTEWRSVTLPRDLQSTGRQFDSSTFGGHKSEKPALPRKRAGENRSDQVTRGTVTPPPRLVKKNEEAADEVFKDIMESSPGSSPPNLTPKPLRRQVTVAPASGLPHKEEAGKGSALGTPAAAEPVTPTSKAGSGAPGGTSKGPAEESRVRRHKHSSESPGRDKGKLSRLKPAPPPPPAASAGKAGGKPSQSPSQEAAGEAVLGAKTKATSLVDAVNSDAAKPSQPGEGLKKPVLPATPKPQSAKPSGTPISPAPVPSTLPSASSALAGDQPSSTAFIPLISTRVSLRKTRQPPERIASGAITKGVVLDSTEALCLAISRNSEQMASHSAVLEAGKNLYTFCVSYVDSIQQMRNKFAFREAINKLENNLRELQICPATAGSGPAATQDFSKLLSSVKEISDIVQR
# Summary of the method: (§1)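 Recombinant protein at 2 µM in 10 mM HEPES pH 7.5 with 500 mM NaCl was mixed with SYPRO Orange (1:1000) and heated at 3 °C/min up to 85 °C. Tm was taken as the Boltzmann-fit inflection point. Shifts are ∆Tm in K from technical duplicates.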
# [3] = biological target: T2, AURKA (Homo sapiens, UniProt O14965); assay: Liability panel screening by DSF: AURKA; type: binding; conditions: DSF, 20 µM, n=2; read-out: Mean ΔTM AURKA
# T2 construct: made in house
# T2 sequence (O14965 1-403): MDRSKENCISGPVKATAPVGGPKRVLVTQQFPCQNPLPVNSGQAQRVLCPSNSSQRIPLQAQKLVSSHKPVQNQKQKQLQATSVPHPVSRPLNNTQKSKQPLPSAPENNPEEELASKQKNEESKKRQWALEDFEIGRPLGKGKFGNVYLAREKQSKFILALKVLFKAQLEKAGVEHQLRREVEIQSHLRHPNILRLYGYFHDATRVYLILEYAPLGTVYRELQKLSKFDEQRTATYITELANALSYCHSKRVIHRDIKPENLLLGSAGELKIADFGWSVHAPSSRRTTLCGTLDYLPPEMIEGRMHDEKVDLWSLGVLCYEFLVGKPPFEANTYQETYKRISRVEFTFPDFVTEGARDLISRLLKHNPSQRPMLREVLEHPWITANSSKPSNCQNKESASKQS
# Summary of the method: as §1
# [4] = biological target: T3, CDK2 (Homo sapiens, UniProt P24941); assay: Liability panel screening by DSF: CDK2; type: binding; conditions: DSF, 20 µM, n=2; read-out: Mean ΔTM CDK2
# T3 construct: made in house
# Summary of the method: as §1
# [5] = biological target: T4, GSK3B (Homo sapiens, UniProt P49841); assay: Liability panel screening by DSF: GSK3B; type: binding; conditions: DSF, 20 µM, n=2; read-out: Mean ΔTM GSK3B
# T4 construct: made in house
# T4 sequence (P49841 whole entry, species assumed): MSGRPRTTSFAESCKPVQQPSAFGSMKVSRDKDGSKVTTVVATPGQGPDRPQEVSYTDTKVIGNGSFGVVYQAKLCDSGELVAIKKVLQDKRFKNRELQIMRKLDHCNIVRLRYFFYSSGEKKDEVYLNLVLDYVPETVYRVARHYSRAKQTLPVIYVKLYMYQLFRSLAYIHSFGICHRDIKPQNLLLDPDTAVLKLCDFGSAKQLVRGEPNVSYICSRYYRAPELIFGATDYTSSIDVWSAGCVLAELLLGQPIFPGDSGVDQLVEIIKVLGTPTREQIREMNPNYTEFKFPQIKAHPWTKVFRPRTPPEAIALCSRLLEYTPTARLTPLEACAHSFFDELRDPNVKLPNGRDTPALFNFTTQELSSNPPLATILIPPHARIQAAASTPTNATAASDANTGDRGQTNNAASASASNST
# [6] = biological target: T5, BRD4 (Homo sapiens, UniProt O60885); assay: Liability panel screening by DSF: BRD4; type: binding; conditions: DSF, 20 µM, n=2; read-out: Mean ΔTM BRD4
# T5 construct: This panel comprised ten highly ligandable kinases and bromodomains; made in house
# Summary of the method: as §1
# [7] = biological target: T6, BRPF1 (Homo sapiens, UniProt P55201); assay: Liability panel screening by DSF: BRPF1; type: binding; conditions: DSF, 20 µM, n=2; read-out: Mean ΔTM BRPF1
# T6 construct: This panel comprised ten highly ligandable kinases and bromodomains; made in house
# T6 sequence (P55201 628-732 limits assumed): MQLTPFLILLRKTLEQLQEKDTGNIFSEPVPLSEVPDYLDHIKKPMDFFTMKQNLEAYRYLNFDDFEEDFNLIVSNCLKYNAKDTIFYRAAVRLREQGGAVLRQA
# Summary of the method: as §1
# [8] = biological target: T7, CSNK1D (Homo sapiens, UniProt P48730); assay: Liability panel screening by DSF: CSNK1D; type: binding; conditions: DSF, 20 µM, n=2; read-out: Mean ΔTM CSNK1D
# T7 construct: made in house
# T7 sequence (P48730 whole entry, species assumed): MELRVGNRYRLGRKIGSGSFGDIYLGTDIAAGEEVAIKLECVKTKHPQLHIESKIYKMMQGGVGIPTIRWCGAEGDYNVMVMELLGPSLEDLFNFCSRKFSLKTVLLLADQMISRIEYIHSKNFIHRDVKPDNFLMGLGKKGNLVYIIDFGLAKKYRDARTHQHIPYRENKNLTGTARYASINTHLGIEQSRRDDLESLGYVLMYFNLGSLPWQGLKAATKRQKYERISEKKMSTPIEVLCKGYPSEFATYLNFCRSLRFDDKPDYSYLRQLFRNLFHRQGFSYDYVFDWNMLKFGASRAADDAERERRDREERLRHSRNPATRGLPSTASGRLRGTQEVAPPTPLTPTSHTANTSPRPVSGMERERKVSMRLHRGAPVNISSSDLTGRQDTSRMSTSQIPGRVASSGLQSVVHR
# Summary of the method: as §1
# [9] = biological target: T8, MAPK1 (Homo sapiens, UniProt P28482); assay: Liability panel screening by DSF: MAPK1; type: binding; conditions: DSF, 20 µM, n=2; read-out: Mean ΔTM MAPK1
# T8 construct: made in house
# T8 sequence (P28482 whole entry, species assumed): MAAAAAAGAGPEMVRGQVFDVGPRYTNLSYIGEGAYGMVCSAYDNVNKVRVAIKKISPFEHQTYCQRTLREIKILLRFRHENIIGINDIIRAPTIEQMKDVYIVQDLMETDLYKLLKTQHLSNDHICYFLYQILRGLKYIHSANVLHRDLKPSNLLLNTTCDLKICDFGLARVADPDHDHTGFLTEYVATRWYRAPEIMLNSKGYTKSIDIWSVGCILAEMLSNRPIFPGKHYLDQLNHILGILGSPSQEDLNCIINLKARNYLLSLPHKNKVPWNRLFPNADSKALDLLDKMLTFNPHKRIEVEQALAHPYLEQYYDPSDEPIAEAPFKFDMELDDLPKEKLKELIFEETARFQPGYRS
# Summary of the method: as §1
# [10] = biological target: T9, TRIM24 (Homo sapiens, UniProt O15164); assay: Liability panel screening by DSF: TRIM24; type: binding; conditions: DSF, 20 µM, n=2; read-out: Mean ΔTM TRIM24
# T9 construct: This panel comprised ten highly ligandable kinases and bromodomains; made in house
# T9 sequence (O15164 899-1004 limits assumed): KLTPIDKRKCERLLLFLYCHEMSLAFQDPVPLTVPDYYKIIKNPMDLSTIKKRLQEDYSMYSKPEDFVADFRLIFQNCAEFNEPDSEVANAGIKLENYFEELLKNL
# Summary of the method: as §1
# [11] = test system: NF-κB activity in HEK293 NF-κB reporter cells; assay: NF-kB activity assay (GFP reporter, ionomycin/PMA); type: cell-based; conditions: n=3
# Summary of the method: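 Reporter readout: GFP-expressing cells normalized to confluence, imaged every 90 min across 24 h after ionomycin (100 ng/mL)/PMA (10 ng/mL) stimulation of HEK293 cells pre-treated 4 h with compound (0.1% DMSO); triplicate independent experiments.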
# [12] = test system: ATF6 activity in Hela ATF6 reporter cells; assay: Endoplasmic reticulum stress assay (ATF6 Renilla luciferase reporter, tunicamycin); type: cell-based; conditions: Homo sapiens, HeLa, 1 µM, single replicates n=1 to n=5; read-out: ER stress [rel. ATF6 activity]
# Summary of the method: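 ER stress was induced by 100 ng/mL tunicamycin added 4 h after compound (0.1% DMSO) to HeLa ATF6 reporter cells. After 18 h more, Renilla luciferase signal was read and expressed relative to DMSO control, n=5 biological replicates.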
# [13] = test system: NR3C2 (MR); conditions: (lit.); ref Supplementary Table 1; read-out: Potency [nM] EC50, NR3C2 (MR); cited from earlier work
# [14] = test system: NR3C3 (PR); conditions: (lit.); ref Supplementary Table 1; read-out: Potency [nM] EC50, NR3C3 (PR); cited from earlier work
# [15] = test system: HEK293T cells; assay: Cytotoxicity: apoptosis induction (caspase-3/7 DEVD fluorogenic DNA dye); conditions: 1 µM; HEK293T, 24 h; apoptotic cell count normalized to 0.1% DMSO; single replicates
compound,measurement,setting,value
N#Cc1ccc(N2N=C3c4ccc(C(=O)O)cc4CC[C@@H]3[C@@H]2C2CCCC2)cc1Cl [PF-03882845],Necrosis induction [NI],[1],1.10 and 0.88 and 0.95 and 1.46
same,ΔTm at 20 µM,[2],-2.47 °C
same,ΔTm at 20 µM,[3],0.42 °C
same,ΔTm at 20 µM,[4],-2.04 °C
same,ΔTm at 20 µM,[5],0 °C
same,ΔTm at 20 µM,[6],0 °C
same,ΔTm at 20 µM,[7],-8.37 °C
same,ΔTm at 20 µM,[8],-4.9 °C
same,ΔTm at 20 µM,[9],-9.49 °C
same,ΔTm at 20 µM,[10],1.43 °C
same,Mean NFκB response,"[11]; 1 µM, 1,5 h",2659.67 GFP+-cells/confluence ∙ 1000
same,Mean NFκB response,"[11]; 1 µM, 4,5 h",3143.33 GFP+-cells/confluence ∙ 1000
same,Mean NFκB response,"[11]; 1 µM, 7,5 h",6360.00 GFP+-cells/confluence ∙ 1000
same,Mean NFκB response,"[11]; 1 µM, 10,5 h",17053.33 GFP+-cells/confluence ∙ 1000
same,Mean NFκB response,"[11]; 1 µM, 13,5 h",25306.67 GFP+-cells/confluence ∙ 1000
same,Mean NFκB response,"[11]; 1 µM, 16,6 h",31613.33 GFP+-cells/confluence ∙ 1000
same,Mean NFκB response,"[11]; 1 µM, 19,5 h",36320.00 GFP+-cells/confluence ∙ 1000
same,Mean NFκB response,"[11]; 1 µM, 22,5 h",39133.33 GFP+-cells/confluence ∙ 1000
same,Mean NFκB response,"[11]; 1 µM, 3 h",2686.67 GFP+-cells/confluence ∙ 1000
same,Mean NFκB response,"[11]; 1 µM, 6 h",3810.00 GFP+-cells/confluence ∙ 1000
same,Mean NFκB response,"[11]; 1 µM, 9 h",11590.00 GFP+-cells/confluence ∙ 1000
same,Mean NFκB response,"[11]; 1 µM, 12 h",21213.33 GFP+-cells/confluence ∙ 1000
same,Mean NFκB response,"[11]; 1 µM, 15 h",28830.00 GFP+-cells/confluence ∙ 1000
same,Mean NFκB response,"[11]; 1 µM, 18 h",34136.67 GFP+-cells/confluence ∙ 1000
same,Mean NFκB response,"[11]; 1 µM, 21 h",37763.33 GFP+-cells/confluence ∙ 1000
same,Mean NFκB response,"[11]; 1 µM, 24 h",40546.67 GFP+-cells/confluence ∙ 1000
same,activity at 1 µM,[12],94%
same,EC50,[13],9 nM
same,EC50,[14],416 nM
same,Apoptosis induction [AI],[15],0.00 (4×) and 0.46 and 0.70
